We go through one molecule from ChEMBL document CHEMBL5154929, “Optimization of the Natural Product Calothrixin A to Discover Novel Dual Topoisomerase I and II Inhibitors with Improved Anticancer Activity” (J Med Chem, 2022).

Data set [1] deals with A-375. As to the kind of experiment: Induction of apoptosis in human A-375 cells assessed as increase in expression level of Bad measured after 24 hrs by Western blotting analysis. The note with it: dose 40-120 nM, DDE = dose-dependent effect. Format: functional, cell-based. On the technique in general: A western blot detects proteins with antibodies after separation by electrophoresis.

For data set [2], the system named is A-375. Nature of the data set: Induction of cell cycle arrest in human A-375 cells assessed as accumulation of cells at S phase at 80 nM incubated for 24 hrs by PI based flow cytometric analysis (RVB = 26.73%). Format: functional. Background: Flow cytometry measures light scatter and fluorescence of single cells or particles in a stream.
Data set [3] can be described thus: Selectivity index, ratio of IC50 for human HEK293T cells to IC50 for human A-375 cells. Format: toxicity. The note with it: HEK293T cells and A-375 cells, read-out: Ratio IC50.
The next data set relates to A549. Nature of the data set: Cytotoxicity against human A549 cells expressing high level of topoisomerase I/II measured after 72 hrs by MTT assay. The format is functional, cell-based. The note with it: A549, 72 h.
For data set [4], the target named is T1, DNA topoisomerase 1 (Homo sapiens) (UniProt P11387).
T1 sequence (whole entry): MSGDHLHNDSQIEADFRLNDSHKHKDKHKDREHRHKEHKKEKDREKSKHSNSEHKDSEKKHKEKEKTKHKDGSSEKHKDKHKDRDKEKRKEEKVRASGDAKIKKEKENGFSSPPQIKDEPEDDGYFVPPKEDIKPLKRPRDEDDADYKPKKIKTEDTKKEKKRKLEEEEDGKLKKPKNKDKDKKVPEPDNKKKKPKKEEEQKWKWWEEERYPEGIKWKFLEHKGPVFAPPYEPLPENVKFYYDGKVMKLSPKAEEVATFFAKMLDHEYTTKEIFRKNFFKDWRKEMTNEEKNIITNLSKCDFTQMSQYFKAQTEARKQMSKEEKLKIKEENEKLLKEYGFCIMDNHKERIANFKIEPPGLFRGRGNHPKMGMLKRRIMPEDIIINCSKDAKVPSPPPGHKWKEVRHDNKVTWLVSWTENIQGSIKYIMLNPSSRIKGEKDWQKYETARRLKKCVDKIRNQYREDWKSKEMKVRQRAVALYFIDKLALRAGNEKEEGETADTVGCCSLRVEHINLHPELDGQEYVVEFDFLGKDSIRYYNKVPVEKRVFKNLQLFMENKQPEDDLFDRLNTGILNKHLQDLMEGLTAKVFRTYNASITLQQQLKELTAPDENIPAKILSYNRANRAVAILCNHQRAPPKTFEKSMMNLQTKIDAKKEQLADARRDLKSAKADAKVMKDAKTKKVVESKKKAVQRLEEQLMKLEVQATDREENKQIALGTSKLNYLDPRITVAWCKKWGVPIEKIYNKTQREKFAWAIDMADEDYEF
As to the kind of experiment: Poison activity at human topoisomerase I assessed as stabilization of enzyme-DNA cleavage complex by measuring nicked DNA formation at 100 uM after 60 mins by agarose gel electrophoresis method.

Data set [5] can be described thus: In vivo acute toxicity in Balb/C mouse assessed as tolerability at 50 mg/kg, iv administered once per 2 days for 7 days measured every other day. Conditions: 168 h, time 7 day. The format is organism-based.

Activity calls are given as the source filed them. No cut-off for these calls is given here.

Take `O=C1c2c[n+]([O-])c3ccccc3c2C(=O)c2c1c1ccccc1n2Cc1cn([C@@H]2C[C@H](O)[C@@H](CO)O2)nn1`: the Activity result was “Dde” in the data set on A-375 [1], 58.13% in the data set with A-375 [2] and “Non-Toxic” in data set [5]. Also, in data set [3], the selectivity ratio came out at 40. Besides, the IC50 in the data set with A549 came out at 120 nM. The result in data set [4] was Active.

By IC50 is commonly meant the concentration needed to halve the response being measured. A higher IC50 goes with weaker potency.
